Experimental data from US11660319B2, “Compositions comprising bacterial strains” (priority 2017, dated 2023).

How the values were obtained:
BALBc mice = test: Gene expression in hippocampus, amygdala and prefrontal cortex (qPCR); format: in vivo, mouse; conditions: amygdala
Method: Animals were allowed to habituate to their holding room for one week after arrival into the animal unit. They receive oral gavage (200 μL dose) of live biotherapeutics at a dose of 1×10^9 CFU for 6 consecutive days between 15:00 and 17:00. On day 7, the animals are decapitated, and tissues are harvested for experimentation.
Total RNA was extracted using the mirVana™ miRNA Isolation kit (Ambion/Llife technologies, Paisley, UK) and DNase treated (Turbo DNA-free, Ambion/life technologies) according to the manufacturers recommendations. RNA was quantified using NanoDrop™ spectrophotometer (Thermo Fisher Scientific Inc., Wilmington, Del., USA) according to the manufacturer's instructions. RNA quality was assessed using the Agilent Bioanalyzer (Agilent, Stockport, UK) according to the manufacturer's procedure and an RNA integrity number (RIN) was calculated. RNA with RIN value >7 was used for subsequent experiments. RNA was reverse transcribed to cDNA using the Applied Biosystems High Capacity cDNA kit (Applied Biosystems, Warrington, UK) according to manufacturer's instructions. Briefly, Multiscribe Reverse Transcriptase (50 U/μL) (1)(2)(1)(10) was added as part of RT master mix, incubated for 25° C. for 10 min, 37° C. for 2 h, 85° C. for 5 min and stored at 4° C. Quantitative PCR was carried out using probes (6 carboxy fluorescein-FAM) designed by Applied Biosystems to mouse specific targeted genes, while using β-actin as an endogenous control. Amplification reactions contained 1 μl cDNA, 5 μl of the 2× PCR Master mix (Roche), 900 nM of each primer and were brought to a total of 10 μl by the addition of RNase-free water. All reactions were performed in triplicate using 96-well plates on the LightCycler®480 System. Thermal cycling conditions were as recommended by the manufacturer (Roche) for 55 cycles. To check for amplicon contamination, each run contained no template controls in triplicate for each probe used. Cycle threshold (Ct) values were recorded. Data was normalized using β-actin and transformed using the 2-ΔΔCT method and presented as a fold change vs. control group.
Expression of genes for neurotransmitter receptors [serotonin receptor 1a(5-HTR1a), dopamine D1 receptor, GABA receptor subunit B1, GABAA receptor, NMDA2A (Grin2A) and NMDA2B (Grin2b) receptor], inflammatory markers [IL-1β, IL6, CD11b, TNFα and TLR4], and endocrine markers [corticosterone releasing factor (CRF), corticosterone releasing factor receptors 1 and 2 (CRFR1, CRFR2), brain-derived neurotrophin factor (BDNF), vasopressin receptor, oxytocin receptor, glucocorticoid receptor and mineralocorticoid receptor] were analysed in brain tissue from the hippocampus, amygdala and prefrontal cortex.

mouse Splenocytes = test: Spleen cytokine assay ex vivo (LPS or ConA stimulation); format: in vivo
Method: Spleens were collected immediately in 5 mL RPMI media following sacrifice and cultured immediately. Spleen cells were first homogenised in this RPMI media, followed by 5 mins incubation with 1 ml of RBC lysis buffer (11814389001 ROCHE, Sigma). A further 10 ml of RPMI media was added, followed by 200G centrifugation for 5 mins. The supernatant was then filtered through 40 um strainer. Cells were counted and seeded (4,000,000/mL media). After 2.5 h of adaptation, cells were stimulated with lipopolysaccharide (LPS-2 μg/ml) or concanavalin A (ConA-2.5 μg/ml) for 24 h. Following stimulation, the supernatants were harvested to assess the cytokine release using Proinflammatory Panel 1 (mouse) V-PLEX Kit (Meso Scale Discovery, Maryland, USA) for TNFα, IL-10, IL-1β, Interferon γ, CXCL2 and IL6. The analyses were performed using MESO QuickPlex SQ 120, SECTOR Imager 2400, SECTOR Imager 6000, SECTOR S 600.
The ex-vivo splenocyte assay involves challenging the splenocytes (cells isolated from the spleen—a main organ involved in immune defense), with a bacterio- or viral-mimetic challenge.

[1] = system: differentiated SHSY-5Y neuroblastoma cells; test: ROS generated by TBHP (DCFDA fluorescence); format: cell-based, human; conditions: 100 uM TBHP, 10% bacteria supernatant, 2 h
Method: SHSY-5Y cells were plated in black flat bottom 96 well plate at density of 5000 cells/well and placed in the CO2 incubator. After 24 h, media were replaced with differentiation medium (growth medium containing 1% FBS) and 10 μM retinoic acid. Differentiation medium was replaced every other day. On Day 10 the differentiation medium was removed and cells were washed with pre-warmed PBS and stained with 10 uM DCFDA molecular probe for 20 mins in growth medium containing 1% FBS. Then cells were washed with pre-warmed PBS again and treated with 100 uM TBHP in the presence or absence of 10% bacteria supernatant for 2 h. Fluorescence intensity was measured using TECAN plate reader at Ex/Em 485/530 nm.

Megasphaera massiliensis [MRx0029]
expression of CD11b (BALBc mice): increase | expression of GABBR1 (BALBc mice): increased | expression of GABRA2 (BALBc mice): significantly increased | expression of TLR4 (BALBc mice): significantly increased | glucocorticoid receptor expression (BALBc mice): increase | interleukin-6 in splenocytes (mouse Splenocytes; challenge with LPS): reduction | interleukin-113 in splenocytes (mouse Splenocytes; challenge with LPS): reduction | levels of interferon-γ in splenocytes (mouse Splenocytes; challenge with LPS): reduction | levels of the chemoattractant CXCL1 (mouse Splenocytes; splenocytes): increase | ROS production [1]: inhibit
